Assay results from PubChem BioAssay (NCI).
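Where inhibition never reached the appropriate level, the endpoint shown equals the highest concentration tested. Otherwise, values were interpolated linearly from a five-concentration, 48-hour dose response in 96-well plates. GI50 is the concentration that inhibits growth by half. At the TGI there is no net growth.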

Legend:
Assay in all cases: inhibition of tumour cell growth, NCI panel, 48 h
CCRF-CEM leukemia = tested on: CCRF-CEM leukemia
DU-145 prostate = tested on: DU-145 prostate
MCF7 breast = tested on: MCF7 breast
MOLT-4 leukemia = tested on: MOLT-4 leukemia
NCI/ADR-RES ovarian = tested on: NCI/ADR-RES ovarian
PC-3 prostate = tested on: PC-3 prostate
RPMI-8226 leukemia = tested on: RPMI-8226 leukemia
SF-295 CNS = tested on: SF-295 CNS
SNB-19 CNS = tested on: SNB-19 CNS
NCI-H522 lung = tested on: NCI-H522 lung

In the case of `CC(=O)Nc1ncc(Sc2ccccc2C(=O)O)s1`, the TGI (CCRF-CEM leukemia) was greater than 100 µM, the TGI (DU-145 prostate) was greater than 100 µM and the TGI (MCF7 breast) was greater than 100 µM. The TGI (MOLT-4 leukemia) was greater than 100 µM, the TGI (NCI/ADR-RES ovarian) was greater than 100 µM and the TGI (PC-3 prostate) was greater than 100 µM. The TGI (RPMI-8226 leukemia) was greater than 100 µM, the TGI (SF-295 CNS) was greater than 100 µM and the TGI (SNB-19 CNS) was greater than 100 µM.
Work on `Cc1c(-c2cc3n(n2)C(c2cccs2)C(C#N)=C(c2ccccc2)N3)c(=O)n(-c2ccccc2)n1C` (configuration not stated) yielded a TGI (CCRF-CEM leukemia) greater than 100 µM, a TGI (MCF7 breast) greater than 100 µM and a TGI (MOLT-4 leukemia) greater than 100 µM. It also gave a TGI (NCI-H522 lung) greater than 100 µM, a TGI (NCI/ADR-RES ovarian) greater than 100 µM and a TGI (SF-295 CNS) greater than 100 µM. For the same compound, the TGI (SNB-19 CNS) was greater than 100 µM.
Compound `O=C1OC(c2ccc(O)c(Cl)c2)(c2ccc(O)c(Cl)c2)c2ccc(Br)c3cccc1c23` (tested in a mixture with another compound) has a TGI (CCRF-CEM leukemia) of 42.3 µM, a TGI (DU-145 prostate) of 46.8 µM and a TGI (MCF7 breast) of 30.6 µM. It also gave a TGI (MOLT-4 leukemia) of 41.8 µM, a GI50 (NCI-H522 lung) of 17.8 µM and a TGI (NCI-H522 lung) of 35.7 µM. It also gave a TGI (NCI/ADR-RES ovarian) of 32.5 µM, a TGI (PC-3 prostate) of 28.8 µM and a TGI (RPMI-8226 leukemia) of 44.5 µM. The TGI (SF-295 CNS) was 36.6 µM and the TGI (SNB-19 CNS) was 44.4 µM.
With `O=C(Oc1ccccc1)c1cc2cc(CCl)ccc2oc1=O` the TGI (CCRF-CEM leukemia) was greater than 100 µM, the TGI (DU-145 prostate) was 98.7 µM and the TGI (MCF7 breast) was greater than 100 µM. The TGI (MOLT-4 leukemia) was greater than 100 µM, the TGI (NCI-H522 lung) was 24.6 µM and the TGI (NCI/ADR-RES ovarian) was greater than 100 µM. The TGI (PC-3 prostate) was 29.2 µM, the TGI (RPMI-8226 leukemia) was greater than 100 µM and the TGI (SF-295 CNS) was 98.4 µM. It also gave a TGI (SNB-19 CNS) greater than 100 µM.
Work on `C=C(C=O)c1c2c(nc3ccccc13)C(=O)c1ccccc1C2=O` yielded a TGI (CCRF-CEM leukemia) of 0.792 µM, a TGI (DU-145 prostate) of 0.982 µM and a TGI (MOLT-4 leukemia) of 0.997 µM. For the same compound, the TGI (NCI-H522 lung) was 2.09 µM, the TGI (PC-3 prostate) was 10.6 µM and the TGI (SF-295 CNS) was 2.76 µM. The TGI (SNB-19 CNS) was 2.8 µM.
In the case of `O=C1c2cc3ccccc3cc2C2(c3ccc(Cl)cc3)N[C@H]3CCCC[C@@H]3N12` (some centres not stated), the TGI (CCRF-CEM leukemia) was greater than 100 µM, the TGI (DU-145 prostate) was 60.2 µM and the TGI (MCF7 breast) was 84.9 µM. The TGI (MOLT-4 leukemia) was greater than 100 µM, the TGI (NCI/ADR-RES ovarian) was 41.6 µM and the TGI (PC-3 prostate) was 42.6 µM. It also gave a TGI (RPMI-8226 leukemia) greater than 100 µM, a TGI (SF-295 CNS) of 32.4 µM and a TGI (SNB-19 CNS) of 27.9 µM.
`CCP(=O)(CC)C(Cl)(Cl)C(O)C(C)(C)C` (configuration not stated) was tested, and the TGI (CCRF-CEM leukemia) was greater than 100 µM, the TGI (DU-145 prostate) was greater than 100 µM and the TGI (MCF7 breast) was greater than 100 µM. For the same compound, the TGI (MOLT-4 leukemia) was greater than 100 µM, the TGI (NCI-H522 lung) was greater than 100 µM and the TGI (NCI/ADR-RES ovarian) was greater than 100 µM. It also gave a TGI (PC-3 prostate) greater than 100 µM, a TGI (RPMI-8226 leukemia) greater than 100 µM and a TGI (SF-295 CNS) greater than 100 µM. The TGI (SNB-19 CNS) was greater than 100 µM.
`NC1CC(=O)c2csc(Br)c21` (configuration not stated) gave a TGI (CCRF-CEM leukemia) greater than 100 µM, a TGI (DU-145 prostate) greater than 52.1 µM and a TGI (MCF7 breast) of 68 µM. It also gave a TGI (MOLT-4 leukemia) of 46.8 µM, a TGI (NCI-H522 lung) of 8.21 µM and a TGI (NCI/ADR-RES ovarian) of 44.4 µM. It also gave a TGI (PC-3 prostate) of 28.4 µM, a TGI (RPMI-8226 leukemia) of 34.2 µM and a TGI (SF-295 CNS) greater than 100 µM. For the same compound, the TGI (SNB-19 CNS) was greater than 80.3 µM.
`C=C1c2c(cc3c(c2O)c(=O)c2ccccc2n3C)OC1(C)C` showed a TGI (CCRF-CEM leukemia) greater than 100 µM, a TGI (MOLT-4 leukemia) greater than 100 µM and a TGI (NCI-H522 lung) of 9.49 µM. For the same compound, the TGI (RPMI-8226 leukemia) was greater than 100 µM, the TGI (SF-295 CNS) was greater than 100 µM and the TGI (SNB-19 CNS) was greater than 100 µM.
Compound `COc1ccc(Cc2nc3cc(C(F)(F)F)ccc3n2CCCN(C)C)cc1` has a TGI (CCRF-CEM leukemia) of 44 µM, a TGI (DU-145 prostate) of 40.4 µM and a TGI (MCF7 breast) of 32.3 µM. The TGI (MOLT-4 leukemia) was 16.3 µM, the TGI (NCI-H522 lung) was 31.8 µM and the TGI (NCI/ADR-RES ovarian) was 45.2 µM. For the same compound, the TGI (PC-3 prostate) was 75 µM, the TGI (SF-295 CNS) was 37.5 µM and the TGI (SNB-19 CNS) was greater than 100 µM.
In the case of `COc1cc(N=NN(C)C)c(C(C)c2c3cc(OC)c(OC)cc3cc[n+]2C)cc1OC` (configuration not stated), the TGI (CCRF-CEM leukemia) was greater than 100 µM, the TGI (DU-145 prostate) was greater than 100 µM and the TGI (MCF7 breast) was greater than 100 µM. It also gave a TGI (MOLT-4 leukemia) greater than 100 µM, a TGI (NCI/ADR-RES ovarian) greater than 100 µM and a TGI (PC-3 prostate) greater than 100 µM. For the same compound, the TGI (RPMI-8226 leukemia) was 70.4 µM, the TGI (SF-295 CNS) was greater than 100 µM and the TGI (SNB-19 CNS) was greater than 100 µM.
